Activity calls are given as the source filed them. Cut-off read from the data, not from the text of the source, for most assays here: actives have a measured Kd and inactives only a lower limit.
What was measured:
[1] = molecular target: Tyrosine-protein kinase FRK (Homo sapiens, UniProt P42685)
[2] = molecular target: Proto-oncogene tyrosine-protein kinase Src (Homo sapiens, UniProt P12931)
[3] = molecular target: Adenylate kinase 2, mitochondrial (Homo sapiens, UniProt P54819)
[4] = molecular target: Mitogen-activated protein kinase 11 (Homo sapiens, UniProt Q15759)
[5] = molecular target: Ephrin type-A receptor 4 (Homo sapiens, UniProt P54764)
[6] = molecular target: Casein kinase I isoform alpha (Homo sapiens, UniProt P48729)
[7] = molecular target: Tyrosine-protein kinase Fyn (Homo sapiens, UniProt P06241)
[8] = molecular target: Fibroblast growth factor receptor 1 (Homo sapiens, UniProt P11362)
[9] = molecular target: Maternal embryonic leucine zipper kinase (Homo sapiens, UniProt Q14680)
[10] = molecular target: Interleukin-1 receptor-associated kinase 1 (Homo sapiens, UniProt P51617)
[11] = molecular target: Serine/threonine-protein kinase MRCK alpha (Homo sapiens, UniProt Q5VT25)
[12] = molecular target: T1, Serine/threonine-protein kinase 3 (Homo sapiens, UniProt Q13188)
T1 sequence (Q13188 whole entry): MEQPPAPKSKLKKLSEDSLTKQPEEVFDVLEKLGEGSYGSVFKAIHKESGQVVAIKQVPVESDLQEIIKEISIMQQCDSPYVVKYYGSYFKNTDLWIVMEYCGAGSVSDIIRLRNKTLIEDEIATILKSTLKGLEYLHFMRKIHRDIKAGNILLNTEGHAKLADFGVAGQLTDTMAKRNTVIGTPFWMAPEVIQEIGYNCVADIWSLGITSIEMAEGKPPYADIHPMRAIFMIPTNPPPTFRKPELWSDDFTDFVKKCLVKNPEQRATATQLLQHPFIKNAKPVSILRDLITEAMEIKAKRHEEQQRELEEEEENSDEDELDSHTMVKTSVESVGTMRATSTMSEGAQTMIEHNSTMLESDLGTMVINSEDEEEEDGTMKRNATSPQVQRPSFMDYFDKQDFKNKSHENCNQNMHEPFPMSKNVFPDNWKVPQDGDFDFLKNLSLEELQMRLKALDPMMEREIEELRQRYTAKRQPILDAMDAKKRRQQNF

[13] = molecular target: Ribosomal protein S6 kinase alpha-4 (Homo sapiens, UniProt O75676)
[14] = molecular target: T2, Structural maintenance of chromosomes protein 1A (Homo sapiens, UniProt Q14683)
T2 sequence (Q14683 whole entry): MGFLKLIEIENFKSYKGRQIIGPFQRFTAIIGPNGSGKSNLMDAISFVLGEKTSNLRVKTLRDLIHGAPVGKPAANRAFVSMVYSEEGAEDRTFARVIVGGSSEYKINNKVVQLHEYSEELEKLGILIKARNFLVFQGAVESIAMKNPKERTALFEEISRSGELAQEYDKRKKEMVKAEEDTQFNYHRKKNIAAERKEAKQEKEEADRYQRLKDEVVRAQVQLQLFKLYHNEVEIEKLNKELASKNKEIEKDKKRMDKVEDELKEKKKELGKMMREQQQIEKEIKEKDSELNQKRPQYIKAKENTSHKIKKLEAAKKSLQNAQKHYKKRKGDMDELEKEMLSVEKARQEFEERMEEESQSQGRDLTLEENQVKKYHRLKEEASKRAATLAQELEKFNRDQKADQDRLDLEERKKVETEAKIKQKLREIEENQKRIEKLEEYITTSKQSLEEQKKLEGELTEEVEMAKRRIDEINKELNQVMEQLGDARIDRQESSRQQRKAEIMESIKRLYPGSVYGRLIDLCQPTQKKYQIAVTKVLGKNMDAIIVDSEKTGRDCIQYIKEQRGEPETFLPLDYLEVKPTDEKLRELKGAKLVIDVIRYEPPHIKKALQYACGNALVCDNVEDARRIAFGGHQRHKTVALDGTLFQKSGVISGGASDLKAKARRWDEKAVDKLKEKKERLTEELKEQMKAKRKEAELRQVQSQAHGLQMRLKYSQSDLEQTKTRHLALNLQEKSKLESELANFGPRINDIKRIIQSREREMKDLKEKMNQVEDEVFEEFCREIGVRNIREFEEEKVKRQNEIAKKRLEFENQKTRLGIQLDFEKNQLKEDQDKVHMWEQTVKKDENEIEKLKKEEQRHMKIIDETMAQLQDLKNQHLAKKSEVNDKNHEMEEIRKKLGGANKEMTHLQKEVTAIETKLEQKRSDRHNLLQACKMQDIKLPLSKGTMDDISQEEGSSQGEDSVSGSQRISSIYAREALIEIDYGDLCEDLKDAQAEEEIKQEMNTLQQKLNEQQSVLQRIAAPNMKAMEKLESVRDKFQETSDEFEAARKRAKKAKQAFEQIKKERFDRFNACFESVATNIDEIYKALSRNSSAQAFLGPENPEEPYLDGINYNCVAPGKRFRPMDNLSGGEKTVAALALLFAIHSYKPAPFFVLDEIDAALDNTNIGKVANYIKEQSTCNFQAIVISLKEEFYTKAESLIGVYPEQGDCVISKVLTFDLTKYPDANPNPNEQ
Note: in the data inactive means no Kd found up to 30 µM.

Fibroblast growth factor receptor 1, sequence (P11362 whole entry): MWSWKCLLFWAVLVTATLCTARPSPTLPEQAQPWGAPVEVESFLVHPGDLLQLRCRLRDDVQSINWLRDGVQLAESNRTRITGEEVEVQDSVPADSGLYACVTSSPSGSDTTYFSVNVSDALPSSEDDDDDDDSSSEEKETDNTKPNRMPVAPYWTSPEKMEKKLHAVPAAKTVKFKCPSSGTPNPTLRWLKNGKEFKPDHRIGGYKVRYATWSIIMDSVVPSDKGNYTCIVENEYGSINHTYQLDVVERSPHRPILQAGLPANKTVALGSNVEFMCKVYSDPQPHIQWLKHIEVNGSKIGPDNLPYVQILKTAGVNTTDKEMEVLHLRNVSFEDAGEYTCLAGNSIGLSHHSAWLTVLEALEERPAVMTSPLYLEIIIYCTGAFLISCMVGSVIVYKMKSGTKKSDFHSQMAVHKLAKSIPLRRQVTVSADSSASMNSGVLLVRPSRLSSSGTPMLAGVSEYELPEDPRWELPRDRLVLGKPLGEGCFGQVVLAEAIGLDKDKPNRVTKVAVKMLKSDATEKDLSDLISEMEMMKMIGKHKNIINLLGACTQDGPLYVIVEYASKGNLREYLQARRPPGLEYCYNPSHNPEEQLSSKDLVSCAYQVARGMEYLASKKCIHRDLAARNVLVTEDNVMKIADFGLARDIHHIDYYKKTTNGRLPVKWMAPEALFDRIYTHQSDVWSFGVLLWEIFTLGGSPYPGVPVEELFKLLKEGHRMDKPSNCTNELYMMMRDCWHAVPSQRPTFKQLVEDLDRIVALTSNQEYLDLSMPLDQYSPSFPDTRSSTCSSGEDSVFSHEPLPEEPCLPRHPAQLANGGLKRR
Mitogen-activated protein kinase 11, sequence (Q15759 whole entry): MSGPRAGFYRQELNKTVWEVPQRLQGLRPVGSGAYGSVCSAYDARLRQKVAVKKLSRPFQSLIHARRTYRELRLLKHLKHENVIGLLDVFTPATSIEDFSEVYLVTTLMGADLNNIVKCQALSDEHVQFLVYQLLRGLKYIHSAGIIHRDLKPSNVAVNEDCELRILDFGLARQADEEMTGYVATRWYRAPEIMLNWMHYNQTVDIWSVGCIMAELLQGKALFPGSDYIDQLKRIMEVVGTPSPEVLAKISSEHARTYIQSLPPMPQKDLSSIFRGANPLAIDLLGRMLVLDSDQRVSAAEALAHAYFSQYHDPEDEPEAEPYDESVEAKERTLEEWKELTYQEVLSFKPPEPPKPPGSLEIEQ
Serine/threonine-protein kinase MRCK alpha, sequence (Q5VT25 whole entry): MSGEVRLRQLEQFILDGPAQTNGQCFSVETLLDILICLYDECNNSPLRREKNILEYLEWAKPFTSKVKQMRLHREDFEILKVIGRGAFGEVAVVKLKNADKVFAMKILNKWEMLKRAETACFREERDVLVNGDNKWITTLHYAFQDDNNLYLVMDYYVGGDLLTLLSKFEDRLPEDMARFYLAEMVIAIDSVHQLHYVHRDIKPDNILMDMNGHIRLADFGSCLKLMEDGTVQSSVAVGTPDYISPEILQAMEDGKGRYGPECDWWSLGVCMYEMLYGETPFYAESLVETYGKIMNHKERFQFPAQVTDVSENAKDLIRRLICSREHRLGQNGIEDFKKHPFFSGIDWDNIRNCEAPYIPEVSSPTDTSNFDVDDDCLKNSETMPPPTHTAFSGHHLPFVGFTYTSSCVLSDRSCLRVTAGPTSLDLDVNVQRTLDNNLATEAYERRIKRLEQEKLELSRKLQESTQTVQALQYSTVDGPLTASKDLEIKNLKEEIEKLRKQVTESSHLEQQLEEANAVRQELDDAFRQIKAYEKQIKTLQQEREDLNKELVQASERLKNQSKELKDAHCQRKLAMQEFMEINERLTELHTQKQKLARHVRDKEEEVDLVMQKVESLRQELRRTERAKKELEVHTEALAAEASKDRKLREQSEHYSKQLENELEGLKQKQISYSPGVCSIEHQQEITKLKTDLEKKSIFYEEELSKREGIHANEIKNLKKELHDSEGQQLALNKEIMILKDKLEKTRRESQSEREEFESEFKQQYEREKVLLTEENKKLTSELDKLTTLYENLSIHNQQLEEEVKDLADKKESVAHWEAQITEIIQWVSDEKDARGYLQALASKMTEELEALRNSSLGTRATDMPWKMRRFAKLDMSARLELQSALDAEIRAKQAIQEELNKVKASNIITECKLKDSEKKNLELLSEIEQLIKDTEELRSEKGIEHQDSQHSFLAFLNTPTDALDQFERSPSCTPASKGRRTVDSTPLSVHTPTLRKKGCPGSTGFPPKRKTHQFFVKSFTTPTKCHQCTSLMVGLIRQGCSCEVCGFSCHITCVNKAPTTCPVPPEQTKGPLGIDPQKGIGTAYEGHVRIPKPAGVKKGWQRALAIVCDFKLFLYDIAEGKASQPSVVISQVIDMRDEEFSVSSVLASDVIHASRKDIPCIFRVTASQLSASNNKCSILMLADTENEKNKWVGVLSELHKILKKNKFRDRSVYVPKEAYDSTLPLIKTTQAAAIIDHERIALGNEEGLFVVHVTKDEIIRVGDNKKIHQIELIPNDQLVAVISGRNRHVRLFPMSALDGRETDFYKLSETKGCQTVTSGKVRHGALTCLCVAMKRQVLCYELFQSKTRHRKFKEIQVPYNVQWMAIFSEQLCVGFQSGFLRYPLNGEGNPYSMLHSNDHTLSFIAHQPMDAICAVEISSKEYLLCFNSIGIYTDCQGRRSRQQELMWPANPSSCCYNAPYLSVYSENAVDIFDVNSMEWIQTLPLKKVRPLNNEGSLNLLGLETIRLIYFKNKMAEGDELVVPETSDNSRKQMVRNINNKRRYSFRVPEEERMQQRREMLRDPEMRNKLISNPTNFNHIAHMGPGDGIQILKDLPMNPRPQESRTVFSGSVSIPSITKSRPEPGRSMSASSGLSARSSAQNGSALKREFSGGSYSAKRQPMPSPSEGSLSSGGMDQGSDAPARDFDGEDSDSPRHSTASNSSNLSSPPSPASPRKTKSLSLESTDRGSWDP
Tyrosine-protein kinase Fyn, sequence (P06241 whole entry): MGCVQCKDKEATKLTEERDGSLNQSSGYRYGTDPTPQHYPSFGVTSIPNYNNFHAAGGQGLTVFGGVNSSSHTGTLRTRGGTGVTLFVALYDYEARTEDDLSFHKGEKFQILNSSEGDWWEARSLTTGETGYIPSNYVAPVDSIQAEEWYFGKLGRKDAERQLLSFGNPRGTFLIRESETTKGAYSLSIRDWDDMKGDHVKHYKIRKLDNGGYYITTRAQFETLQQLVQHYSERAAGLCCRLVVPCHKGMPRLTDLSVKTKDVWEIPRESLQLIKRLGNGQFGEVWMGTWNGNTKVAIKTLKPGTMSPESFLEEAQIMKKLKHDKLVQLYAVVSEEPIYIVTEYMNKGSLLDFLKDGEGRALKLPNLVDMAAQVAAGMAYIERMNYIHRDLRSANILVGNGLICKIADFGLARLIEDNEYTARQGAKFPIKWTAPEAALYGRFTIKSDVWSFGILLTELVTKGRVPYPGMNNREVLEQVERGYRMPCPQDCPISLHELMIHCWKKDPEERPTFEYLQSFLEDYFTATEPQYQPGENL
Ribosomal protein S6 kinase alpha-4, sequence (O75676 whole entry): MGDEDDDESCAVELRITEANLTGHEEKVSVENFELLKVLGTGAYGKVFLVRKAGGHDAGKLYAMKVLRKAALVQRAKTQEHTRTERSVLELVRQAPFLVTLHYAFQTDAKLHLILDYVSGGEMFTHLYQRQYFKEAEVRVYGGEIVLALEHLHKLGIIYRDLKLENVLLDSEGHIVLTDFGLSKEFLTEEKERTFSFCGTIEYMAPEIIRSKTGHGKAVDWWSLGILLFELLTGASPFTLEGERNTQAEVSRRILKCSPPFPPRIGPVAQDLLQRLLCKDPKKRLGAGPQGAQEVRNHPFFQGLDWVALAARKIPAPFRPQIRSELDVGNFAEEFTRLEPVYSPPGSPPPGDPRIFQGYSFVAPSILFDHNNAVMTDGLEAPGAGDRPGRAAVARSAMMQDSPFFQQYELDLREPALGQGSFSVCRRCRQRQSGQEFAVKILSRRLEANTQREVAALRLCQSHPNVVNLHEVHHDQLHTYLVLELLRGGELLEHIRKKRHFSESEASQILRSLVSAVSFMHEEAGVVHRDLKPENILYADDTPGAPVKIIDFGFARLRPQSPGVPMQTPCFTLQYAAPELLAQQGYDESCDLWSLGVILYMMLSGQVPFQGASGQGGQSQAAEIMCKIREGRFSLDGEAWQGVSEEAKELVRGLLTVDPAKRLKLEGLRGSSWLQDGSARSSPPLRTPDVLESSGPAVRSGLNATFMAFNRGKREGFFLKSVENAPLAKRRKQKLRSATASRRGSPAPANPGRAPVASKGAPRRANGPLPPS
Casein kinase I isoform alpha, sequence (P48729 whole entry, canonical isoform): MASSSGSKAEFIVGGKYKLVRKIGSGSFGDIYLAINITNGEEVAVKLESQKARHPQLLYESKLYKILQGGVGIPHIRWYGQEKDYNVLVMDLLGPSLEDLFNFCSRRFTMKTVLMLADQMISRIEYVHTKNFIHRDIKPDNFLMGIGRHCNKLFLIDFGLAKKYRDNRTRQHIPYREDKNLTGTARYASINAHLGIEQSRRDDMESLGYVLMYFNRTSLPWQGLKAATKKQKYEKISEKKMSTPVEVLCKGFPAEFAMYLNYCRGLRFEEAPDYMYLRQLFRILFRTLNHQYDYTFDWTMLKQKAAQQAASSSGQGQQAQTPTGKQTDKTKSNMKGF
Tyrosine-protein kinase FRK, sequence (P42685 whole entry): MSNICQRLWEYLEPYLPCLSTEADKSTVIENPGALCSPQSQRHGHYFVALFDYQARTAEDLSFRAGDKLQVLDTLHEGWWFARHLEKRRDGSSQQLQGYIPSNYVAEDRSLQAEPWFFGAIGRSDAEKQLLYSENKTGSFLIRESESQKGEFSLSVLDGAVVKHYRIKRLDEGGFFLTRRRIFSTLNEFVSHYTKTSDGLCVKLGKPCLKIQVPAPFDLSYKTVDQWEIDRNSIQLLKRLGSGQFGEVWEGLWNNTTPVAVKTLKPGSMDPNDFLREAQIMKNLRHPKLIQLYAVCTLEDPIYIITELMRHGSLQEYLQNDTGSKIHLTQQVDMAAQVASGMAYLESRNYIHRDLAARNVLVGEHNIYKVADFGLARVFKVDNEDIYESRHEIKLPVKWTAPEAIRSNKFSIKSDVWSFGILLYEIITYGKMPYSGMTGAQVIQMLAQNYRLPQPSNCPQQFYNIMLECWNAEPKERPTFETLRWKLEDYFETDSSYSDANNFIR

Structure (SMILES)	Kd [1]	Kd [2]	Kd [3]	Kd [4]	Kd [5]	Kd [6]	Kd [7]	Kd [8]	Kd [9]	Kd [10]	Kd [11]	Kd [12]	Kd [13]	Kd [14]
COc1cc(F)c(F)c(Nc2ccc(I)cc2F)c1NS(=O)(=O)C1(C[C@H](O)CO)CC1 [REFAMETINIB]	> 30 µM (inactive)	> 30 µM (inactive)	> 30 µM (inactive)	> 30 µM (inactive)	> 30 µM (inactive)	> 30 µM (inactive)	> 30 µM (inactive)	> 30 µM (inactive)	> 30 µM (inactive)	> 30 µM (inactive)	> 30 µM (inactive)	> 30 µM (inactive)	> 30 µM (inactive)	
c1cc(OCCN2CCCCC2)cc(-c2n[nH]c3ccc(-c4nc[nH]n4)cc23)c1 [CC-401]	> 30 µM (inactive)	> 30 µM (inactive)	> 30 µM (inactive)	> 30 µM (inactive)	> 30 µM (inactive)	5.16 µM (active)	> 30 µM (inactive)	> 30 µM (inactive)	0.217 µM (active)	> 30 µM (inactive)	> 30 µM (inactive)	> 30 µM (inactive)	> 30 µM (inactive)	
O=c1[nH]c([C@@H]2CCCN2)nc2c1oc1ccc(Cl)cc12	> 30 µM (inactive)	> 30 µM (inactive)	> 30 µM (inactive)	> 30 µM (inactive)	> 30 µM (inactive)	> 30 µM (inactive)	> 30 µM (inactive)	> 30 µM (inactive)	> 30 µM (inactive)	> 30 µM (inactive)	> 30 µM (inactive)	> 30 µM (inactive)	> 30 µM (inactive)	
NC(=O)c1ccc(N(C(N)=O)c2c(F)cccc2F)nc1-c1ccc(F)cc1F [VX-702]	> 30 µM (inactive)	> 30 µM (inactive)	> 30 µM (inactive)		> 30 µM (inactive)	> 30 µM (inactive)	> 30 µM (inactive)	> 30 µM (inactive)	> 30 µM (inactive)	> 30 µM (inactive)	> 30 µM (inactive)	> 30 µM (inactive)	> 30 µM (inactive)	> 30 µM (inactive)
C=CC(=O)Nc1cccc(Nc2nc(Nc3ccc(N4CCN(C(C)=O)CC4)cc3OC)ncc2C(F)(F)F)c1 [ROCILETINIB]	> 30 µM (inactive)	> 30 µM (inactive)	> 30 µM (inactive)		> 30 µM (inactive)	> 30 µM (inactive)	> 30 µM (inactive)	> 30 µM (inactive)	> 30 µM (inactive)	> 30 µM (inactive)	> 30 µM (inactive)	> 30 µM (inactive)	> 30 µM (inactive)	> 30 µM (inactive)
C=CCN(/C=C1/C(=O)O[C@H](COC)[C@@]2(C)C1=C(O)C(=O)C1=C2[C@H](OC(C)=O)C[C@]2(C)C(=O)CC[C@@H]12)CC=C [SONOLISIB]	> 30 µM (inactive)	> 30 µM (inactive)		> 30 µM (inactive)	> 30 µM (inactive)	> 30 µM (inactive)	> 30 µM (inactive)	> 30 µM (inactive)	> 30 µM (inactive)	> 30 µM (inactive)	> 30 µM (inactive)	> 30 µM (inactive)	> 30 µM (inactive)	
Cc1c(NC(=O)OC[C@@H]2COCCN2)cn2ncnc(Nc3ccc4c(cnn4Cc4cccc(F)c4)c3)c12 [AC-480]	> 30 µM (inactive)	> 30 µM (inactive)	> 30 µM (inactive)	> 30 µM (inactive)	> 30 µM (inactive)	> 30 µM (inactive)	> 30 µM (inactive)	> 30 µM (inactive)	> 30 µM (inactive)	> 30 µM (inactive)	> 30 µM (inactive)	> 30 µM (inactive)	> 30 µM (inactive)	
